Results on one compound are retold here after publication PMC6438731, “Extrasynaptic δ‐GABAA receptors are high‐affinity muscimol receptors” (Journal of Neurochemistry, 2019).

The target in assay [1] is T1, α1β2γ2 recombinant GABAA receptor (Rattus norvegicus, UniProt P62813+P63138).
T1 construct: expressed in transfected cells; host or cells: HEK293 (ATCC CRL-1573), pRK5 plasmids, membranes
As to the kind of experiment: [^3H]muscimol binding kinetics, recombinant α1β2γ2 in HEK293 membranes. The text has this:
(§1) Human embryonic kidney (HEK) 293 cells (ATCC Cat# CRL‐1573; RRID: CVCL_0045; a commonly misidentified cell line by ICLAC; last authenticated by STR DNA profiling in December 2018) were transfected with rat cDNAs (α1, L08490; α6, L08495; β2, X15467; β3, X15468; γ2S, L08497; δ, L08496) in pRK5 plasmids under the control of the cytomegalovirus promoter (Uusi‐Oukari et al. 2000), using the calcium phosphate precipitation method essentially as described (Lüddens and Korpi 1997). The plasmids were used in 1 : 1 and 1 : 1 : 1 ratios for transfections containing 2 [(α1 or α6) + (β2 or β3)] or 3 [(α1 or α6) + (β2 or β3) + (γ2S or δ)] different subunits, respectively (5 μg of each plasmid DNA for a 10 cm plate). Mock transfection was done using 5 μg pRK5 plasmid backbone. The cells were harvested 48 h after transfection. Culture medium was removed and the cells were detached from the plates by pipetting in ice‐cold assay buffer containing 2 mM EDTA. The cells were homogenized (Ultra Turrax, 20 s at 9500 rpm), the homogenates centrifuged at 20 000 g for 10 min at +4°C, and washed once with the same buffer. The homogenates were finally suspended in assay buffer (1 mL/plate) and either used directly to binding assays or stored frozen at −70°C.
(§2) The binding of [^3H]muscimol (5 nM) was measured in assay buffer at 22°C in a total volume of 300 μL. Triplicate technical replicates of mouse forebrain (190–215 μg protein), cerebellar (180–210 μg protein) or HEK cell (92–132 μg protein) membranes for each time point were incubated with shaking for various times (15 s–15 min) to measure association of the binding. […] The incubation was terminated by filtration of the samples with a Brandel Cell Harvester (model M‐24, Gaithersburg, MD, USA) onto Whatman GF/B filters (Whatman International Ltd., Maidstone, UK). The samples were rinsed twice with 4–5 mL of ice‐cold assay buffer. Filtration and rinsing steps took a total time of ~15 s. Air‐dried filters were immersed in 3 mL of Optiphase HiSafe 3 scintillation fluid (Wallac, Turku, Finland) and radioactivity determined in a Wallac model 1410 liquid scintillation counter (Wallac, Turku, Finland).
(§3) The tubes were mixed and incubations at 22°C were terminated at various time points (30 s – 30 min) as described above. Dissociation of [^3H]muscimol from recombinant receptors in HEK cell membranes was also measured at 0–4°C (on ice) to evaluate how fast [^3H]muscimol dissociates from receptors while washing the filter with ice‐cold assay buffer during filtration.

Assay [2] addresses T2, α6β2γ2 recombinant GABAA receptor (Rattus norvegicus, UniProt P30191+P63138).
T2 construct: expressed in transfected cells; host or cells: HEK293 (ATCC CRL-1573), pRK5 plasmids, membranes
The assay is described as follows: [^3H]muscimol binding kinetics, recombinant α6β2γ2 in HEK293 membranes.
From the text: as §1
as §2, with “Finland). The maximal binding disintegrations per minute (DPM) values (at 15 min in association) for recombinant studies with 5 nM [^3H]muscimol were between 700 and 2500 DPMs of specific binding (background subtracted). […]” for “Finland).”
as §3

Assay [3] deals with native δ‐GABAARs in the forebrain (WT‐δKO, predominantly α4βδ) (Mus musculus, UniProt P63137+Q9D6F4). As to the kind of experiment: [^3H]muscimol binding kinetics, forebrain WT‐δKO (subtracted). The conditions noted are these: 22°C. The procedure: (§4) WT and δKO forebrain and cerebellar membranes were prepared using a modification of the method of Squires and Saederup (2000) essentially as described by Uusi‐Oukari et al. (2014). […] forebrain along with midbrain region was homogenized into 10 mM Tris‐HCl, pH 8.0 buffer containing 2 mM EDTA, using an Ultra‐Turrax T25 (Janke & Kunkel IKA labortechnik) for 20 s at 9500 rpm. The homogenates were centrifuged at 20 000 g for 10 min at +4°C and the resulting pellets were washed three times by resuspension and re‐centrifugation with 10 mM Tris‐HCl, pH 8.5 buffer containing 0.2 M NaCl, and 5 mM EDTA. The resulting pellets were then suspended in ice‐cold H2O and centrifuged. The pellets were again washed three times with Tris, pH 8.5/NaCl/EDTA as described above. The resulting pellets were finally suspended in assay buffer consisting of 50 mM Tris‐base, pH adjusted to 7.4 with citric acid, and frozen at −70°C. Before a binding experiment, the suspension was thawed, centrifuged, and suspended in assay buffer.
The binding of [^3H]muscimol (5 nM) was measured in assay buffer at 22°C in a total volume of 300 μL. Triplicate technical replicates of mouse forebrain (190–215 μg protein), cerebellar (180–210 μg protein) or HEK cell (92–132 μg protein) membranes for each time point were incubated with shaking for various times (15 s–15 min) to measure association of the binding. […] Air‐dried filters were immersed in 3 mL of Optiphase HiSafe 3 scintillation fluid (Wallac, Turku, Finland) and radioactivity determined in a Wallac model 1410 liquid scintillation counter (Wallac, Turku, Finland). […]
The tubes were mixed and incubations at 22°C were terminated at various time points (30 s – 30 min) as described above. Dissociation of [^3H]muscimol from recombinant receptors in HEK cell membranes was also measured at 0–4°C (on ice) to evaluate how fast [^3H]muscimol dissociates from receptors while washing the filter with ice‐cold assay buffer during filtration. […]

The target of assay [4] is forebrain membranes of δKO mice. The assay is described as follows: Saturation analysis of [^3H]muscimol binding, δKO forebrain membranes. Also on record: species or system mouse. The conditions noted are these: 0°C. The procedure:
as §4
Saturation analysis of [^3H]muscimol to WT and δKO mouse forebrain and cerebellar membranes was performed essentially as described by Uusi‐Oukari and Korpi (1989). […] The incubations were terminated as described above.

The target of assay [5] is T3, α1β2δ recombinant GABAA receptor (Rattus norvegicus, UniProt P62813+P63138).
T3 construct: expressed in transfected cells; host or cells: HEK293 (ATCC CRL-1573), pRK5 plasmids, membranes
As to the kind of experiment: [^3H]muscimol binding kinetics, recombinant α1β2δ in HEK293 membranes. The conditions noted are these: room temperature (22°C).
From the text: Human embryonic kidney (HEK) 293 cells (ATCC Cat# CRL‐1573; RRID: CVCL_0045; a commonly misidentified cell line by ICLAC; last authenticated by STR DNA profiling in December 2018) were transfected with rat cDNAs (α1, L08490; α6, L08495; β2, X15467; β3, X15468; γ2S, L08497; δ, L08496) in pRK5 plasmids under the control of the cytomegalovirus promoter (Uusi‐Oukari et al. 2000), using the calcium phosphate precipitation method essentially as described (Lüddens and Korpi 1997). The plasmids were used in 1 : 1 and 1 : 1 : 1 ratios for transfections containing 2 [(α1 or α6) + (β2 or β3)] or 3 [(α1 or α6) + (β2 or β3) + (γ2S or δ)] different subunits, respectively (5 μg of each plasmid DNA for a 10 cm plate). […]
The binding of [^3H]muscimol (5 nM) was measured in assay buffer at 22°C in a total volume of 300 μL. […] Air‐dried filters were immersed in 3 mL of Optiphase HiSafe 3 scintillation fluid (Wallac, Turku, Finland) and radioactivity determined in a Wallac model 1410 liquid scintillation counter (Wallac, Turku, Finland).
as §3

Assay [6] addresses forebrain membranes of δKO mice (non‐δ‐GABAARs). As to the kind of experiment: [^3H]muscimol binding kinetics, δKO forebrain membranes. Also on record: species or system mouse. As for the experimental part: as §4
as §2, with “Finland). The maximal binding disintegrations per minute (DPM) values (at 15 min in association) for recombinant studies with 5 nM [^3H]muscimol were between 700 and 2500 DPMs of specific binding (background subtracted). In native membranes, the maximal DPM values were between 2500 and 3000 for WTs and 1300–1500 for δKOs.” for “Finland).”
as §3

Where [7] appears, read: forebrain WT‐δKO (native δ‐GABAARs, by subtraction).

The structures appear in SMILES notation. “And” between values parts separate entries of the source, which are not always exact repeats. Identical values can stand only once. Like-named read-outs stand apart in the source and are kept apart here.

T1 sequence (P62813 28-455): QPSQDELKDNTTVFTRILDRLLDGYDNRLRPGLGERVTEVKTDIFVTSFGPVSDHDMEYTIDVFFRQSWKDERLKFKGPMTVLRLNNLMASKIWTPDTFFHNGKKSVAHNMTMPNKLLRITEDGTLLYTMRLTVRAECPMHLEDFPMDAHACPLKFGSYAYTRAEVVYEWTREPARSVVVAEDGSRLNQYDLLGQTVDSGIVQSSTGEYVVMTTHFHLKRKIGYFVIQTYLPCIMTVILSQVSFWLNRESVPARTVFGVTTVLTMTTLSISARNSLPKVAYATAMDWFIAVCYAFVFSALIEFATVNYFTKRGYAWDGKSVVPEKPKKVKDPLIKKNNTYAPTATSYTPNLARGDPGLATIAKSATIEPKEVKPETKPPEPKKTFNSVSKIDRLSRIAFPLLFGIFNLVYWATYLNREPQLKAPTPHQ
T1 sequence (P63138 26-474): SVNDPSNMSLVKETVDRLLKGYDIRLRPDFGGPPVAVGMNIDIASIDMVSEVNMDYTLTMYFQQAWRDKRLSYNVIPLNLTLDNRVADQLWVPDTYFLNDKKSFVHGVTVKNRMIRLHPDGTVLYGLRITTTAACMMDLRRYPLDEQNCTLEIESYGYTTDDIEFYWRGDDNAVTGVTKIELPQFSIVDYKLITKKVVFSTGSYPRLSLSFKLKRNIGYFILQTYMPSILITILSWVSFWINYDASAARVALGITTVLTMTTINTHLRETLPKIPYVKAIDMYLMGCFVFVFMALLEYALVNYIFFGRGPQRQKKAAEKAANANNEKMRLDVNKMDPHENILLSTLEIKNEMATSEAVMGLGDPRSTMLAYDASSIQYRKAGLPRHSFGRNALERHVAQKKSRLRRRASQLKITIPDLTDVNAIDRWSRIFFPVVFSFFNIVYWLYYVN
T1 sequence (P18508 39-466 partner): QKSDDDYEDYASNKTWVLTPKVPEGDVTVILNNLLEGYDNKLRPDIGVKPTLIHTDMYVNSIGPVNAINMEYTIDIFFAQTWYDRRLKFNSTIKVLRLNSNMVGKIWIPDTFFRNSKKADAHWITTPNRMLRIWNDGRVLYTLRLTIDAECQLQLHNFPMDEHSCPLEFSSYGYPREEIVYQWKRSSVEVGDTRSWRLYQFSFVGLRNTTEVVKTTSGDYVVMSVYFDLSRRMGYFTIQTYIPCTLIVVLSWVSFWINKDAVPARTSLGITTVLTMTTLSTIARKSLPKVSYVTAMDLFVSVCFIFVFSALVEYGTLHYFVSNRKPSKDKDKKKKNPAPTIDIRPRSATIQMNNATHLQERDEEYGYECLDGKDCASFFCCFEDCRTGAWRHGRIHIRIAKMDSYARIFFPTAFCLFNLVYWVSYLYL
T2 sequence (P30191 20-453): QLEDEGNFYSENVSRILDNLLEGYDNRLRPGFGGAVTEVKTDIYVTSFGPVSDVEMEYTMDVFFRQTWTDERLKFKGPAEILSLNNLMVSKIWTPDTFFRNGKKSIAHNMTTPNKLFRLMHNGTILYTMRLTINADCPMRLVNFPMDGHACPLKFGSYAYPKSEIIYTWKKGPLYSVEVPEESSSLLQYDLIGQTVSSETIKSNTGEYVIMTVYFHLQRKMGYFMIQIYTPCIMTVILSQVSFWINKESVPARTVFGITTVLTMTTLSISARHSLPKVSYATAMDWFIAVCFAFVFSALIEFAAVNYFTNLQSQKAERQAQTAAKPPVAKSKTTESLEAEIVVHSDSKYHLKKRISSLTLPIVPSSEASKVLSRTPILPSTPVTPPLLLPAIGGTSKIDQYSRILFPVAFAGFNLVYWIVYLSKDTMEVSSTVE
T2 sequence (P63138 26-474): as the sequence (P63138 26-474) above
T2 sequence (P18508 39-466 partner): as the sequence (P18508 39-466 partner) above
native δ‐GABAARs in the forebrain (WT‐δKO, predominantly α4βδ), sequence (Q9D6F4 36-552): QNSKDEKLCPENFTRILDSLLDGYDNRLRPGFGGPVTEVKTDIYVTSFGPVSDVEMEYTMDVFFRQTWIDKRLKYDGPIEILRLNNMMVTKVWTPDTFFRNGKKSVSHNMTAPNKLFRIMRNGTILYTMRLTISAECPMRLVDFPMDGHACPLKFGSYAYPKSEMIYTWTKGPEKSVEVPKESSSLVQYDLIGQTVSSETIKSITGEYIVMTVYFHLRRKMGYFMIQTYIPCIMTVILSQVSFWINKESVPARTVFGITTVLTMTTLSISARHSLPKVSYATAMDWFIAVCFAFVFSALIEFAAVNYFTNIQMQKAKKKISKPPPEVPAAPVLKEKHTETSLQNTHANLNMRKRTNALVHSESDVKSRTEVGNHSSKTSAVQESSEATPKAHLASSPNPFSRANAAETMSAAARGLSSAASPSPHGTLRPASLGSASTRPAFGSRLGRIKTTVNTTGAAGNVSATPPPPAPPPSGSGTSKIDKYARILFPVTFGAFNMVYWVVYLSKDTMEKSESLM
native δ‐GABAARs in the forebrain (WT‐δKO, predominantly α4βδ), sequence (P63137 26-512): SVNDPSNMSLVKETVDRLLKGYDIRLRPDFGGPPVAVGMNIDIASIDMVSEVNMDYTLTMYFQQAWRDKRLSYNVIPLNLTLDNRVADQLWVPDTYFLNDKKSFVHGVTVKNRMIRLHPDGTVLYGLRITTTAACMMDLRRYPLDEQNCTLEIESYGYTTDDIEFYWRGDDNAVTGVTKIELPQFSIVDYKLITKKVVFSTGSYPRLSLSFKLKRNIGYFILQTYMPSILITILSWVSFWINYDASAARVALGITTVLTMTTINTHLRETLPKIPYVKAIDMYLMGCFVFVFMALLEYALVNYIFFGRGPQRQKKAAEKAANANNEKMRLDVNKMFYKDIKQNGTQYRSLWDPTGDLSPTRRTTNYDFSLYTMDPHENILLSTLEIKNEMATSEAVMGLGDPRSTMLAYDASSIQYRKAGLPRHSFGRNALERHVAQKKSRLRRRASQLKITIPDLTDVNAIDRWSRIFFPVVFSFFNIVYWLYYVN
native δ‐GABAARs in the forebrain (WT‐δKO, predominantly α4βδ), sequence (P22933 25-449 partner): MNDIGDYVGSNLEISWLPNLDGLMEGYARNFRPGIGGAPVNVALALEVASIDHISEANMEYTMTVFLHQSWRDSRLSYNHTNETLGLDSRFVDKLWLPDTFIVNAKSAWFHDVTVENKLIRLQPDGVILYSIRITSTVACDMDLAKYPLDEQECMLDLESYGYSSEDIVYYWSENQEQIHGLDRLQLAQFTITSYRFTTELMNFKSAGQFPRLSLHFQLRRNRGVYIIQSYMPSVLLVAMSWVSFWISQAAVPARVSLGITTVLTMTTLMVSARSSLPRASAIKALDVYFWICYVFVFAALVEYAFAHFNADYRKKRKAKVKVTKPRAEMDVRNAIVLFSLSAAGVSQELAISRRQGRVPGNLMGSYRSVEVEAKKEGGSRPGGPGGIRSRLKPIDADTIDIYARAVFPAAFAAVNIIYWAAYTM
T3 sequence (P62813 28-455): as the sequence (P62813 28-455) above
T3 sequence (P63138 26-474): as the sequence (P63138 26-474) above
T3 sequence (P18506 25-449 partner): as the sequence (P22933 25-449 partner) above, with A38P, L149M counted along it

Regarding `NCc1cc(=O)[nH]o1` [[^3H]muscimol] [[Methylene‐^3H]muscimol], the “dissociation of [^3H]muscimol binding during the first 15 s after pre‐incubation” value in assay [1] (α1β2γ2, 0°C, approximated) was “about 10%”. Also, the Kd in assay [1] (α1β2γ2 in HEK293 membranes, 22°C, K D = koff/kon) was 1.6 nM; in assay [2] (22°C, K D = koff/kon) it was 1.6 nM; in assay [3] (forebrain WT‐δKO (native δ‐GABAARs, α4βδ), K D = koff/kon) it was ~1.6 nM and 1.6 nM; in assay [6] (calculated from k on and k off, read-out: apparent [^3H]muscimol affinities (K D) for non‐δ‐GABAARs), around 1 nM; in assay [6] (forebrain membranes, 22°C, K D = koff/kon, read-out: K D) it was 1.1 nM. Also, the k off was 0.00587 ± 0.00015 s⁻¹ in assay [1] (α1β2γ2 in HEK293 membranes, +4 °C); 0.0297 ± 0.003 s⁻¹ in assay [1] (α1β2γ2 in HEK293 membranes, room temperature (22°C)); 0.086 ± 0.010 ^, ^** min^−1 in assay [2] (+4 °C); 0.98 ± 0.02 ^### ^, ^††† min^−1 in assay [2] (room temperature (22°C)); 0.00383 ± 0.00033 s⁻¹ in assay [3] (setting [7]); 0.18 ± 0.03 ^### min^−1 in assay [5]. The k off in assay [6] (forebrain membranes, room temperature (22°C)) is on record as 1.67 ± 0.15 ^*** min^−1. Besides, the k on was 11 ± 0.6 × 10^8 M^−1 × min^−1 in assay [1] (α1β2γ2 in HEK293 membranes, room temperature (22°C), 5 nM [^3H]muscimol); 6.3 ± 0.5 × 10^8, ^### ^, ^††† M^−1 × min^−1 in assay [2] (room temperature (22°C), 5 nM [^3H]muscimol); 1.4 ± 0.2 × 10^8 M^−1 × min^−1 in assay [3] (setting [7]); 15 ± 3.1 × 10^8 ^** M^−1 × min^−1 in assay [6] (forebrain membranes, room temperature (22°C), 5 nM [^3H]muscimol). Besides, in assay [4], the “Apparent pKD” value amounted to 7.68 ± 0.05.
